Assay: xn = mol fraction of the nth substance listed
Settings: 101 kPa, Liquid

CCOC(=O)OCC [diethyl carbonate] + CCCCCCO
Settings | mass density [kg/m3] | speed of sound [m/s] | viscosity [mPa·s]
293.15 K, x1 = 0.0502 | 825.96 | 1301 | 4.731
293.15 K, x1 = 0.1123 | 834.86 | 1291 | 4.164
293.15 K, x1 = 0.1499 | 840.29 | 1285 | 3.715
293.15 K, x1 = 0.2103 | 849.1 | 1275 | 3.178
293.15 K, x1 = 0.2508 | 855.05 | 1268 | 2.837
293.15 K, x1 = 0.3121 | 864.19 | 1259 | 2.382
293.15 K, x1 = 0.3576 | 871.02 | 1252 | 2.078
293.15 K, x1 = 0.4113 | 879.15 | 1245 | 1.757
293.15 K, x1 = 0.4632 | 887.08 | 1239 | 1.488
293.15 K, x1 = 0.5111 | 894.51 | 1234 | 1.247
293.15 K, x1 = 0.552 | 900.88 | 1230 | 1.115
293.15 K, x1 = 0.6008 | 908.59 | 1226 | 0.956
293.15 K, x1 = 0.6498 | 916.39 | 1222 | 0.863
293.15 K, x1 = 0.7108 | 926.19 | 1219 | 0.859
293.15 K, x1 = 0.7554 | 933.45 | 1216 | 0.84
293.15 K, x1 = 0.8112 | 942.65 | 1213 | 0.831
293.15 K, x1 = 0.8501 | 949.13 | 1211 | 0.825
293.15 K, x1 = 0.9002 | 957.5 | 1208 | 0.818
293.15 K, x1 = 0.9555 | 966.89 | 1206 | 0.803
303.15 K, x1 = 0.0502 | 818.55 | 1267 | 3.486
303.15 K, x1 = 0.1123 | 827.16 | 1256 | 3.03
303.15 K, x1 = 0.1499 | 832.48 | 1249 | 2.796
303.15 K, x1 = 0.2103 | 841.04 | 1240 | 2.403
303.15 K, x1 = 0.2508 | 846.79 | 1234 | 2.165
303.15 K, x1 = 0.3121 | 855.69 | 1225 | 1.859
303.15 K, x1 = 0.3576 | 862.23 | 1217 | 1.621
303.15 K, x1 = 0.4113 | 870.21 | 1210 | 1.414
303.15 K, x1 = 0.4632 | 877.88 | 1204 | 1.22
303.15 K, x1 = 0.5111 | 885.13 | 1200 | 1.063
303.15 K, x1 = 0.552 | 891.35 | 1197 | 0.951
303.15 K, x1 = 0.6008 | 898.87 | 1194 | 0.844
303.15 K, x1 = 0.6498 | 906.42 | 1193 | 0.811
303.15 K, x1 = 0.7108 | 915.93 | 1192 | 0.804
303.15 K, x1 = 0.7554 | 923.08 | 1191 | 0.774
303.15 K, x1 = 0.8112 | 932.03 | 1190 | 0.748
303.15 K, x1 = 0.8501 | 938.29 | 1189 | 0.73
303.15 K, x1 = 0.9002 | 946.57 | 1188 | 0.724
303.15 K, x1 = 0.9555 | 955.77 | 1187 | 0.713
313.15 K, x1 = 0.0502 | 811.04 | 1252 | 2.621
313.15 K, x1 = 0.1123 | 819.37 | 1236 | 2.339
313.15 K, x1 = 0.1499 | 824.54 | 1224 | 2.115
313.15 K, x1 = 0.2103 | 832.78 | 1211 | 1.856
313.15 K, x1 = 0.2508 | 838.35 | 1203 | 1.687
313.15 K, x1 = 0.3121 | 846.97 | 1192 | 1.466
313.15 K, x1 = 0.3576 | 853.42 | 1185 | 1.319
313.15 K, x1 = 0.4113 | 861.12 | 1177 | 1.16
313.15 K, x1 = 0.4632 | 868.59 | 1170 | 1.031
313.15 K, x1 = 0.5111 | 875.61 | 1165 | 0.912
313.15 K, x1 = 0.552 | 881.55 | 1162 | 0.826
313.15 K, x1 = 0.6008 | 888.91 | 1158 | 0.744
313.15 K, x1 = 0.6498 | 896.35 | 1155 | 0.689
313.15 K, x1 = 0.7108 | 905.65 | 1153 | 0.61
313.15 K, x1 = 0.7554 | 912.55 | 1152 | 0.607
313.15 K, x1 = 0.8112 | 921.16 | 1151 | 0.602
313.15 K, x1 = 0.8501 | 927.49 | 1150 | 0.606
313.15 K, x1 = 0.9002 | 935.57 | 1148 | 0.61
313.15 K, x1 = 0.9555 | 944.49 | 1146 | 0.615
323.15 K, x1 = 0.0502 | 803.29 | 1204 | 2.06
323.15 K, x1 = 0.1123 | 811.3 | 1184 | 1.825
323.15 K, x1 = 0.1499 | 816.2 | 1172 | 1.689
323.15 K, x1 = 0.2103 | 824.2 | 1160 | 1.488
323.15 K, x1 = 0.2508 | 829.57 | 1153 | 1.367
323.15 K, x1 = 0.3121 | 837.88 | 1143 | 1.22
323.15 K, x1 = 0.3576 | 844.05 | 1137 | 1.093
323.15 K, x1 = 0.4113 | 851.48 | 1131 | 0.97
323.15 K, x1 = 0.4632 | 858.73 | 1126 | 0.857
323.15 K, x1 = 0.5111 | 865.59 | 1123 | 0.765
323.15 K, x1 = 0.552 | 871.51 | 1121 | 0.689
323.15 K, x1 = 0.6008 | 878.65 | 1119 | 0.607
323.15 K, x1 = 0.6498 | 885.85 | 1117 | 0.568
323.15 K, x1 = 0.7108 | 894.96 | 1115 | 0.532
323.15 K, x1 = 0.7554 | 901.77 | 1114 | 0.535
323.15 K, x1 = 0.8112 | 910.41 | 1113 | 0.537
323.15 K, x1 = 0.8501 | 916.42 | 1112 | 0.54
323.15 K, x1 = 0.9002 | 924.3 | 1111 | 0.544
323.15 K, x1 = 0.9555 | 933.24 | 1110 | 0.548
